Series [1] can be described thus: Polymorphic stability at up to 100% relative humidity at room temperature. It is filed as physicochemical.
Series [2] can be described thus: Hygroscopicity of the crystalline form. It is filed as physicochemical. To be noted: crystalline solid form.

Regarding Belumosudil Besylate [Form BS1], the “time over which the form is polymorphically stable” value in series [1] is on record as “at least 7 days”. The hygroscopicity entry in series [2] is reported as “non-hygroscopic”.
For Belumosudil Mesylate [Form M1], in that order: “at least 7 days” and “non-hygroscopic”.
For Belumosudil Tosylate [Form T1] the same measures were “at least 7 days” and “non-hygroscopic”.

The record behind these values is patent publication US12157729B2, “Solid state forms of Belumosudil and Belumosudil salts” (TEVA PHARMACEUTICALS INTERNATIONAL GMBH, priority 2020, dated 2024).
